Assay results reported in paper PMC8175350, “Drug repurposing screens identify chemical entities for the development of COVID-19 interventions” (Nature Communications, 2021).
Several values for one entry are separate records, joined by “and”; a condition that tells them apart may be missing. Identical values can stand only once. Like-named read-outs stand apart in the source and are kept apart here.

Columns and labels:
SARS-CoV-2 [1] = experiment: microbe, parasite or virus in culture; assay type: cell-based; details: for SARS-CoV-2 % infected cells: 10 µM after 1 h infection; for TOA: HeLa-ACE2, replicate wells n=1-3
SARS-CoV-2 [2] = assay type: cell-based
HeLa-ACE2 cells [3] = experiment: Total cell count in the HeLa-ACE2 TOA assay; assay type: cell-based; details: Homo sapiens
From the text: Supplement 41467_2021_23328_MOESM3_ESM.xlsx, sheet "Table S1" | column: HeLa-ACE2 TOA cell count

HeLa-ACE2 cells [4] = experiment: cells; details: Homo sapiens
Calu-3 cells [5] = experiment: cells; details: Homo sapiens
COVID-19 [6] = details: shortened from 15; ref [7]; cited from earlier work
COVID-19 [7] = details: ref [9]; cited from earlier work
in vitro = details: human
Calu-3 cells [8] = experiment: Uninfected Calu-3 48 h Cell-Titer Glo cytotoxicity counter screen

CCC(CC)COC(=O)[C@H](C)N[P@](=O)(OC[C@H]1O[C@@](C#N)(c2ccc3c(N)ncnn23)[C@H](O)[C@@H]1O)Oc1ccccc1 [Remdesivir]
SARS-CoV-2 % infected cells (SARS-CoV-2 [1]; 5:00:00): 0.7242% and 1.236% and 0.5657% | SARS-CoV-2 % infected cells (SARS-CoV-2 [1]; 6:00:00): 1.289% and 0.8606% | SARS-CoV-2 % infected cells (SARS-CoV-2 [1]; 7:00:00): 0.8435% and 0.9162% | SARS-CoV-2 % infected cells (SARS-CoV-2 [1]; 8:00:00): 1.114% and 1.68% | SARS-CoV-2 % infected cells (SARS-CoV-2 [1]; 10:00:00): 1.9707% and 2.635% | SARS-CoV-2 % infected cells (SARS-CoV-2 [1]; 11:00:00): 2.255% and 2.403% | SARS-CoV-2 % infected cells (SARS-CoV-2 [1]; 12:00:00): 4.554% | SARS-CoV-2 % infected cells (SARS-CoV-2 [1]; 24:00:00): 1.211% and 0.9586% | activity when treatment was initiated at 1 hpi (SARS-CoV-2 [1]; HeLa-ACE2, 10 µM): effectively blocked the infection | TOA (SARS-CoV-2 [1]; concentration log[M] -5.61909): -92.6138 and -80.8583 and -88.199 and -76.7514 and -93.5448 and -83.4805 and -80.3661 and -74.8437 and -99.8898 | TOA (SARS-CoV-2 [1]; concentration log[M] -6.09621): -68.7737 and -49.7255 and -48.7992 and -40.2692 and -44.1304 and -40.198 and -47.0122 and -58.4412 and -51.4261 | TOA (SARS-CoV-2 [1]; concentration log[M] -6.57334): -20.3161 and -18.1481 and -10.1709 and -1.508 and -0.9303 and -16.8539 and -5.25 and -7.77 | TOA (SARS-CoV-2 [1]; concentration log[M] -7.05046): -7.493 and -17.8403 and -13.1433 and -19.1912 and -3.289 and -5.355 and 2.9336 and -2.419 | TOA (SARS-CoV-2 [1]; concentration log[M] -7.52758): -5.952 and 2.422 and 1.456 and -1.724 and -2.397 and 2.2617 and 7.029 and -1.667 and -1.15 | TOA (SARS-CoV-2 [1]; concentration log[M] -8.0047): 5.958 and 5.629 and 3.068 and -1.8321 and 3.442 and 6.226 and 7.961 and 4.025 and 11.376 | TOA (SARS-CoV-2 [1]; concentration log[M] -8.48182): 4.28 and 10.7449 and 12.4349 and -4.585 and 4.364 and -1.184 and 4.823 and 5.851 and -1.616 | TOA (SARS-CoV-2 [1]; concentration log[M] -8.95894): -2.286 and -0.1755 and 11.8345 and -1.884 and 3.08 and 1.621 and -5.04 and -0.06688 and -11.3351 | Emax (SARS-CoV-2 [1]; Severe acute respiratory syndrome coronavirus 2, HeLa-ACE2, 10 h, curve plateau at infinite concentration, read-out: HeLa-ACE2 TOA CoV-2 Sinf Average): 102% | EC50 (SARS-CoV-2 [1]; Severe acute respiratory syndrome coronavirus 2, HeLa-ACE2, read-out: HeLa-ACE2 TOA CoV-2 EC50 GeoMean): 795 nM | EC50 (SARS-CoV-2 [1]; Severe acute respiratory syndrome coronavirus 2, HeLa-ACE2, fixed 10 hpi, geomean, read-out: CoV-2 TOA EC50): 770 nM | effect on viral replication in ALI-HBECs (SARS-CoV-2 [2]): inhibited viral replication | Emax (HeLa-ACE2 cells [3]; HeLa-ACE2, 10 h, curve plateau at infinite concentration, read-out: HeLa-ACE2 TOA cell count Sinf Average): 100% | EC50 (HeLa-ACE2 cells [3]; HeLa-ACE2, read-out: HeLa-ACE2 TOA cell count EC50 GeoMean): > 9610 nM | Emax (HeLa-ACE2 cells [4]; HeLa-ACE2, 24 h, read-out: HeLa-ACE2 cell count Sinf Average): 100% | EC50 (HeLa-ACE2 cells [4]; HeLa-ACE2, read-out: HeLa-ACE2 cell count EC50 GeoMean): > 9600 nM | EC50 (HeLa-ACE2 cells [4]; HeLa-ACE2, read-out: cell count in infection assay EC50, HeLa-ACE2, geomean, ^↑ = increasing dose-response curve): > 1200 nM | Emax (Calu-3 cells [5]; Calu-3, 48 h, read-out: Calu-3 cell count Sinf Average): 103% | EC50 (Calu-3 cells [5]; Calu-3, read-out: Calu-3 cell count EC50 GeoMean): 700 nM | EC50 (Calu-3 cells [5]; Calu-3, read-out: cell count EC50, Calu-3, geomean, ^↑ = increasing dose-response curve): 537 nM | median time to recovery (COVID-19 [6]): 11 days | mortality of hospitalized COVID-19 patients (COVID-19 [7]): failed to reduce mortality | CC50 (in vitro; Calu-3 Uninf. cells CC50 (µM), reconfirmed hits): > 30 µM | CC50 (in vitro; Calu-3 Uninf. cells CC50 (µM), value in brackets*: remdesivir control): > 30 µM | CC50 (in vitro; Calu-3 uninfected cytotoxicity CC50 GeoMean): > 29.9 µM | CC50 (in vitro; cytotoxicity CC50, uninfected Calu-3, geomean): > 30 µM | cytotox (Calu-3 cells [8]; Calu-3, concentration log[M] -5, replicate wells n=1-3): 10.3923 and -8.975 and 0.952 and 18.306 and 7.959 and -3.54 and 10.6309 and -10.2579 and 5.131 | Calu-3 uninfected cytotoxicity Sinf Average (Calu-3 cells [8]; curve plateau at infinite concentration): -95%
